Some test systems named below: Citrobacter freundii E8; Enterobacter cloacoae N1; Escherichia coli 0111; Escherichia coli JT39; Klebsiella aerogenes A; Proteus mirabilis C977; Proteus vulgaris WO91; Pseudomonas aeruginosa A; Serratia marcescens US20; Bacillus subtilis A.
What all share (assay): MIC in a standard test
What all share (assay type): cell-based

The next assay deals with Proteus morganii I580. The note with it: Morganella morganii.
The next assay has as its system Proteus rettgeri WM16. The following applies: Providencia rettgeri.
The test system of assay [1] is Salmonella typhimurium CT10. The following applies: Salmonella enterica.
For another assay, the system named is Shigella sonnei MB 11967. The following applies: MB11967.
In assay [2] the test system is Staphylococcus aureus Oxford.
The test system of assay [3] is Staphylococcus aureus Russell.
The subject of assay [4] is Staphylococcus aureus 1517.
Another assay relates to Streptococcus faecalis I. The note with it: Enterococcus faecalis.
Assay [5] deals with Streptococcus pneumoniae CN33.
In assay [6] the test system is Streptococcus pyogenes CN10.
Setting [7] is: standard test, Escherichia coli JT39, read-out: MIC.

These results are taken from patent EP0008888A1, “Beta-lactam antibacterial compounds, their preparation and pharmaceutical compositions containing them” (BEECHAM GROUP PLC, priority 1978, dated 1980).

≈ marks a conversion by molar mass, not a printed value. Read-outs that look alike come from different tables or passages of the source.

Usually MIC stands for the lowest concentration that inhibits growth of the organism. In the case of `CCSC1=C(C(=O)O)N2C(=O)[C@@H](C)[C@H]2C1` (relative stereo) [Example 79, Sodium 3 - ethylthio-6β - methyl - 7 - oxo - 1 - azabicyclo [3.2 .O] hept - 2 - ene - 2 - carboxylate], the MIC against Citrobacter freundii E8 is 6.2 µg/mL; in the assay on Enterobacter cloacoae N1 it was 6.2 µg/mL; with Escherichia coli 0111 it was 6.2 µg/mL; in the assay on Escherichia coli JT39 (setting [7]) it was 6.2 µg/mL; against Klebsiella aerogenes A, 3.1 µg/mL; in the assay on Proteus mirabilis C977 it was 6.2 µg/mL. In addition, the MIC with Proteus morganii I580 was 25 µg/mL; against Proteus rettgeri WM16, 25 µg/mL; against Proteus vulgaris WO91 it was 25 µg/mL; in the assay with Pseudomonas aeruginosa A, over 50 µg/mL; in [1], 3.1 µg/mL; against Serratia marcescens US20, 12.5 µg/mL. Further, the MIC with Shigella sonnei MB 11967 was 3.1 µg/mL; with Bacillus subtilis A, 6.2 µg/mL; in [2], 3.1 µg/mL; in assay [3] it was 6.2 µg/mL; in [4], over 50 µg/mL; with Streptococcus faecalis I, over 50 µg/mL. Besides, the values for the MIC in [5] and in assay [6] were 0.8 µg/mL and 3.1 µg/mL, respectively.
`CCSC1=C(C(=O)OCc2ccc([N+](=O)[O-])cc2)N2C(=O)[C@@H](CCN=[N+]=[N-])[C@H]2C1` (relative stereo) [Example 82, p - Nitrobenzyl - 6β-(2 - azidoethyl) - 3 - ethylthio - 7 - oxo - 1 - azabicyclo [3.2.O] hept-2 - ene - 2 - carboxylate]: the MIC against Citrobacter freundii E8 stood at 3.1 µg/mL (≈ 7.43 µM); against Enterobacter cloacoae N1, 12.5 µg/mL (≈ 29.9 µM); in the assay on Escherichia coli 0111, 1.6 µg/mL (≈ 3.83 µM); with Escherichia coli JT39 (setting [7]), 12.5 µg/mL (≈ 29.9 µM); in the assay on Klebsiella aerogenes A, 1.6 µg/mL (≈ 3.83 µM); with Proteus mirabilis C977, 12.5 µg/mL (≈ 29.9 µM). Further, the MIC was 12.5 µg/mL (≈ 29.9 µM) in the assay with Proteus morganii I580; 6.2 µg/mL (≈ 14.9 µM) in the assay with Proteus rettgeri WM16; 12.5 µg/mL (≈ 29.9 µM) in the assay on Proteus vulgaris WO91; over 50 µg/mL against Pseudomonas aeruginosa A; 3.1 µg/mL (≈ 7.43 µM) in [1]; 12.5 µg/mL (≈ 29.9 µM) with Serratia marcescens US20. Moreover, the MIC is 3.1 µg/mL (≈ 7.43 µM) in the assay on Shigella sonnei MB 11967; 1.6 µg/mL (≈ 3.83 µM) with Bacillus subtilis A; 0.8 µg/mL (≈ 1.92 µM) in assay [2]; 1.6 µg/mL (≈ 3.83 µM) in assay [3]; 50 µg/mL (≈ 120 µM) in [4]; 50 µg/mL (≈ 120 µM) in the assay on Streptococcus faecalis I.
For `CCSC1=C(C(=O)[O-])N2C(=O)CC2C1.[Na+]` (stereo not shown) [Example 7, Sodium 3-ethylthio-7-oxo-1-azabicyclo(3,2,0)hept-2-ene-2-carboxylate], the MIC against Citrobacter freundii E8 stood at 2.5 µg/mL; with Enterobacter cloacoae N1 it was 2.5 µg/mL; in the assay with Escherichia coli 0111, 2.5 µg/mL; against Escherichia coli JT39 (Escherichia coli, JT39), 50 µg/mL; against Klebsiella aerogenes A it was 1 µg/mL; against Proteus mirabilis C977, 10 µg/mL. Further, the MIC was 10 µg/mL against Proteus morganii I580; 50 µg/mL against Proteus rettgeri WM16; 50 µg/mL against Proteus vulgaris WO91; over 100 µg/mL in the assay on Pseudomonas aeruginosa A; 2.5 µg/mL in assay [1]; 10 µg/mL in the assay with Serratia marcescens US20. The MIC is 5.2 µg/mL in the assay with Shigella sonnei MB 11967; 1 µg/mL against Bacillus subtilis A; 5 µg/mL in assay [2]; 10 µg/mL in [3]; over 100 µg/mL in [4]; 100 µg/mL against Streptococcus faecalis I. The MIC in assay [5] and in assay [6] was 1 µg/mL throughout.
Consider `CCSC1=C(C(=O)OC2OC(=O)c3ccccc32)N2C(=O)C[C@H]2C1` (stereo partly shown) [Example 9, Phthalidyl 3-ethylthio-7-oxo-1-azabicyclo[3.2.0]hept-2-ene-2-carboxylate], for which the MIC was 12.5 µg/mL (≈ 36.2 µM) in the assay with Citrobacter freundii E8; 12.5 µg/mL (≈ 36.2 µM) against Escherichia coli 0111; over 50 µg/mL in the assay on Escherichia coli JT39 (setting [7]); 12.5 µg/mL (≈ 36.2 µM) against Klebsiella aerogenes A; 25 µg/mL (≈ 72.4 µM) with Proteus mirabilis C977; 25 µg/mL (≈ 72.4 µM) in the assay with Proteus morganii I580. Further, the MIC against Proteus rettgeri WM16 is over 50 µg/mL; in the assay with Proteus vulgaris WO91, over 50 µg/mL; against Pseudomonas aeruginosa A, over 50 µg/mL; in assay [1], 12.5 µg/mL (≈ 36.2 µM); in the assay on Serratia marcescens US20 it was 50 µg/mL (≈ 145 µM); against Shigella sonnei MB 11967, 12.5 µg/mL (≈ 36.2 µM). The MIC against Bacillus subtilis A was 25 µg/mL (≈ 72.4 µM); in [2], over 50 µg/mL; in [3], over 50 µg/mL; in assay [4] it was over 50 µg/mL; with Streptococcus faecalis I, over 50 µg/mL; in assay [6], 12.5 µg/mL (≈ 36.2 µM).
Turning to `NCCSC1=C(C(=O)O)N2C(=O)CC2C1` (stereo not shown) [Example 15, 3-Aminoethylthio-7-oxo-1-azabicyclo[3.2.0]hept-2-ene-2-carboxylic acid], the MIC is 3.1 µg/mL (≈ 13.6 µM) with Citrobacter freundii E8; 3.1 µg/mL (≈ 13.6 µM) with Enterobacter cloacoae N1; 3.1 µg/mL (≈ 13.6 µM) in the assay with Escherichia coli 0111; 1.6 µg/mL (≈ 7.01 µM) in the assay on Escherichia coli JT39 (setting [7]); 1.6 µg/mL (≈ 7.01 µM) against Klebsiella aerogenes A; 25 µg/mL (≈ 110 µM) in the assay on Proteus mirabilis C977. Besides, the MIC against Proteus morganii I580 is 25 µg/mL (≈ 110 µM); in the assay with Proteus rettgeri WM16, 25 µg/mL (≈ 110 µM); with Proteus vulgaris WO91, 25 µg/mL (≈ 110 µM); with Pseudomonas aeruginosa A it was 6.2 µg/mL (≈ 27.2 µM); in assay [1], 3.1 µg/mL (≈ 13.6 µM); in the assay on Serratia marcescens US20, 6.2 µg/mL (≈ 27.2 µM). The MIC is 3.1 µg/mL (≈ 13.6 µM) against Shigella sonnei MB 11967; 0.8 µg/mL (≈ 3.5 µM) in the assay with Bacillus subtilis A; 0.8 µg/mL (≈ 3.5 µM) in assay [2]; over 3.1 µg/mL in assay [3]; 25 µg/mL (≈ 110 µM) with Streptococcus faecalis I; 0.2 µg/mL (≈ 0.876 µM) in assay [5]. This molecule returned an MIC in assay [6] of 0.4 µg/mL (≈ 1.75 µM).
As to `COC(=O)CCSC1=C(C(=O)O)N2C(=O)C[C@H]2C1` [Example 23, Potassium 3-(2-methoxycarbonylethvlthio)-7-oxo-l-azabicyclo[3.2.0]hept-2-ene-2-carboxylate], the MIC was 1.6 µg/mL in the assay on Citrobacter freundii E8; 1.6 µg/mL with Escherichia coli 0111; 6.2 µg/mL with Escherichia coli JT39 (setting [7]); 1.6 µg/mL in the assay on Klebsiella aerogenes A; 12.5 µg/mL in the assay on Proteus mirabilis C977; 25 µg/mL against Proteus morganii I580. The MIC against Proteus rettgeri WM16 was 25 µg/mL; against Proteus vulgaris WO91, 25 µg/mL; with Pseudomonas aeruginosa A, over 50 µg/mL; in [1], 3.1 µg/mL; with Serratia marcescens US20, 25 µg/mL; with Bacillus subtilis A, 3.1 µg/mL. In addition, the MIC was 12.5 µg/mL in assay [2]; 50 µg/mL in assay [3]; over 50 µg/mL in [4]; over 50 µg/mL with Streptococcus faecalis I; at most 0.2 µg/mL in assay [5]; 0.8 µg/mL in assay [6].
Consider `COCCSC1=C(C(=O)O)N2C(=O)C[C@H]2C1` [Example 32, Sodium 3-(2-methxyethylthio)-7-oxo-1-azabicyclo[3.2.0] hept-2-ene-2-carboxylate], for which the MIC against Citrobacter freundii E8 was 3.1 µg/mL; in the assay with Enterobacter cloacoae N1, 6.2 µg/mL; in the assay with Escherichia coli 0111 it was 3.1 µg/mL; with Escherichia coli JT39 (setting [7]), 6.2 µg/mL; against Klebsiella aerogenes A, 1.6 µg/mL; in the assay on Proteus mirabilis C977, 6.2 µg/mL. In addition, the MIC against Proteus morganii I580 was 50 µg/mL; in the assay with Proteus rettgeri WM16, 50 µg/mL; in the assay with Proteus vulgaris WO91, 50 µg/mL; with Pseudomonas aeruginosa A it was over 100 µg/mL; in assay [1], 3.1 µg/mL; with Serratia marcescens US20, 12.5 µg/mL. Moreover, the MIC against Shigella sonnei MB 11967 is 3.1 µg/mL; with Bacillus subtilis A, 1.6 µg/mL; in assay [2], 6.2 µg/mL; in assay [3], 25 µg/mL; in assay [4] it was over 50 µg/mL; against Streptococcus faecalis I, 50 µg/mL. Moreover, the figures for the MIC in assay [5] and in [6] were at most 0.2 µg/mL and 1.6 µg/mL, respectively.
